Here are results for 3 molecules from patent publication US20220332699A1 (SAGE THERAPEUTICS, INC., priority 2019, published 2022).

Bounds are passed on as bounds.

The target in one series is CYP46A1 (Homo sapiens, UniProt Q9Y6A2). As to the kind of experiment: CYP46A1 Enzyme Assay 2 (testosterone substrate, HPLC-MS). The series is classed as biochemical. As to conditions: read-out: IC50 (CYP46A1 inhibitory activity). In a few lines: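 CYP46A1 (5 μM final) with testosterone ([…] final) preincubated with compound 30 min at 37° C, reaction started with NADPH-generating system and run 15 min at 37° C. Quenched in methanol containing diclofenac internal standard; product read by HPLC-MS.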

Series [1] is described as follows: Compound stability in cryopreserved human hepatocytes. It counts as in vitro ADME. As to conditions: pooled cryopreserved human hepatocytes, read-out: Human Hep Clint. As for the experimental part: Pooled cryopreserved human hepatocytes from 10 donors were obtained from BioreclamationIVT (Cat No. X008001, Lot MMN). Test compounds (20 μL of 1 mM stock solution in DMSO) and control compounds 7-ethoxycoumarin and 7-hydroxycoumarin (20 μL of 3 mM stock solutions in DMSO) were diluted with 380 μL of 45% MeOH/H2O to obtain 50 μM solutions of test compound and 150 μM solutions of control compounds. Then 50 μL of these respective solutions were mixed with 450 μL of pre-warmed Williams' Medium E to obtain 5 μM test compound and 15 μM control compound solutions; and in duplicate 10 μL of these solutions were added to appropriate wells in a 96-well plate corresponding to incubation times T0, T15, T30, T60 and T90 and kept at 37° C. Cryopreserved human hepatocytes were thawed, isolated and suspended in Williams' Medium E, then diluted with pre-warmed William' Medium E to a concentration of 0.625×10^6 cells/mL. The reaction was started by aliquoting 40 μL of the hepatocytes into the 96-well plates containing 10 μL of the test and control compounds and incubated at 37° C. with 5% CO2. Stop solution (acetonitrile containing 200 ng/mL tolbutamide and labetalol as internal standards) was added at the requisite time (15, 30, 60, or 90 minutes). Hepatocytes were not added to the T0 samples, which were rather directly treated with stop solution. Medium control (MC) sample plates (T0-MC and T90-MC) were incubated in identical fashion as for the test samples, but without addition of hepatocytes and stop solution was added at the requisite times. The plates were vortexed immediately after addition of stop solution and placed on a plate shaker at 500 rpm for 10 min, then centrifuged at 3220×g for 20 min. The supernatants were transferred to 96-deep-well plates, sealed and stored at 4° C. until LC-MS-MS analysis. The concentration of compound remaining was determined by LC-MS-MS and plotted versus time. […]
Cutoff values determined by the hepatocyte stability assay are in Table 2 below: […]

The subject of the next series is P-gp (MDR1). As to the kind of experiment: Compound permeability and efflux across a MDCK-MDR1 cellular membrane. As to conditions: dog, pH 7.4, MDCK-MDR1 cell monolayer; for Papp A→B at 2.5 h, 2 µM: A to B; for efflux ratio at 2.5 h, 2 μM: read-out: MDCK Effux Ratio (B:A/A:B). The series is classed as in vitro ADME, canine. As for the experimental part:
MDR1-MDCKII cells (obtained from Piet Borst at the Netherlands Cancer Institute) were seeded onto […] (PET) in 96-well BD insert systems at 2.5×10^5 cells/mL and grown for 4-7 days until confluent cell monolayer formation.
Transport buffer for test compound was HBSS with 10 mM Hepes (pH 7.4±0.05) with or without 1% BSA and with or without GF120918. Transport buffer for reference compound was HBSS with 10 mM Hepes (pH 7.4±0.05) with or without GF120918. Test and reference compounds (digoxin, nadolol and metoprolol) were diluted with transport buffer from stock solution to a concentration of 2 μM (DMSO<1%) and applied to the apical or basolateral side of the cell monolayer. Permeation of the test compounds from A to B direction or B to A direction was determined in triplicate with and without P-gp inhibitor (GF120918, 10 μM). Digoxin was tested at 10 μM in the presence or absence of 10 μM GF120918 bi-directionally as well, while nadolol and metoprolol were tested at 2 μM in the absence of GF120918 in A to B direction in duplicate. The plate was incubated for 2.5 h in a CO2 incubator at 37±1° C., with 5% CO2 at saturated humidity without shaking. Test and reference compounds were quantified by LC/MS/MS analysis based on the peak area ratio of analyte/IS.
Six wells per 96-well plate were selected for the lucifer yellow rejection assay to determine the cell monolayer integrity. Thus, 75 μL of 100 μM lucifer yellow in transport buffer and 250 μL transport buffer were added to apical and basolateral chambers, respectively. The plate was incubated for 150 min at 37° C. with 5% CO2 and 95% relative humidity without shaking. After 150 minutes incubation, 20 μL of lucifer yellow samples were taken from the apical sides, followed by the addition of 60 μL of Transport Buffer, and then 80 μL of lucifer yellow samples were taken from the basolateral sides. The relative fluorescence unit (RFU) of lucifer yellow was measured at 425/528 nm (excitation/emission) with a Envision plate reader.
The apparent permeability coefficient Papp (cm/s) was calculated using the equation: […]
wherein dCr/dt is the cumulative concentration of compound in the receiver chamber as a function of time (μM/s); Vr is the solution volume in the receiver chamber (0.075 mL on the apical side, 0.25 mL on the basolateral side); A is the surface area for the transport, i.e. 0.0804 cm^2 for the area of the monolayer; C0 is the initial concentration in the donor chamber (μM).
The efflux ratio was calculated using the equation:
Efflux Ratio=Papp(BA)/Papp(AB)

A short description of another series: Mouse pharmacokinetics. The series is classed as in vivo. As to conditions: 30 mg/kg PO. As for the experimental part:
Compound A6 was evaluated in a mouse pharmacokinetics (PK) study. The compound was dosed at 30 mg/kg PO to 3 male CD-1 mice, formulated as a solution in 30% hydroxypropyl beta-cyclodextran, with a dosing volume of 5 ml/kg. Plasma samples were collected at 0.25, 0.50, 1.0, 2.0, 4.0, 8.0 and 24 h post-dose. In 2 separate groups with 3 mice/group, Compound A6 was dosed at 30 mg/kg, PO and plasma and brain samples were collected at 0.5 and 2.0 h post-dose. […] The brain to plasma ratio at 0.25 and 2.0 h was 0.39 and 0.41, respectively.

Sequence of CYP46A1 (Q9Y6A2 whole entry): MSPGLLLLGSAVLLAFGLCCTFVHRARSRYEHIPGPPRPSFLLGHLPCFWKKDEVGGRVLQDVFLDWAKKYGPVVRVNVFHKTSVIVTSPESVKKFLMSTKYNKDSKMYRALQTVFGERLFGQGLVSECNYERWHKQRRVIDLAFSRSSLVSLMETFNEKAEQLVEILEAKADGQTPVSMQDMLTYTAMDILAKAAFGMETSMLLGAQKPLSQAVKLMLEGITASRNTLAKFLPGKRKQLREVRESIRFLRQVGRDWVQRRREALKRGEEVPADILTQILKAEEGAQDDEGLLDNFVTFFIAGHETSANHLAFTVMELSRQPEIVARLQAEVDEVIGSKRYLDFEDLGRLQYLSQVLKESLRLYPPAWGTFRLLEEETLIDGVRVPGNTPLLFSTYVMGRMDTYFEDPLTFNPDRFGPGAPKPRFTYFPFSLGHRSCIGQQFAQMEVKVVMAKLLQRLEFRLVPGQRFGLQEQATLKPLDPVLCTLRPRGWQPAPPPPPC

`N#CC1(Cc2ccc(F)cc2)CCN(C(=O)c2cccnc2-c2ccncn2)CC1` [Compound A6, 4-(4-fluorobenzyl)-1-(2-(pyrimidin-4-yl)nicotinoyl)piperidine-4-carbonitrile]: the IC50 at CYP46A1 is < 100 nM. In addition, in series [1], the CLint scaled at 1 µM is < 18 mL/min/kg. In addition, in the series on P-gp (MDR1), the apparent permeability from apical to basolateral (Papp A→B) at 2.5 h, 2 µM was found to be 22 ×10⁻⁶ cm/s and the efflux ratio at 2.5 h, 2 μM was determined as 1.4. Besides, in “Mouse pharmacokinetics” (CD-1, mouse, brain and plasma, mice, at 0.25 h, read-out: brain to plasma ratio), the Kp at 0.25 h turned out to be 0.39. Also, the Kp at 2 h in “Mouse pharmacokinetics” (CD-1, mouse, brain and plasma, mice, at 2.0 h, read-out: brain to plasma ratio) turned out to be 0.41. Further, in the series “Mouse pharmacokinetics” (mouse, male CD-1 mice, plasma), the AUC worked out at 14400 ng·h/mL, the Cmax came to 10700 ng/mL and the half-life was 57.6 min.

On to `N#CC1(Cc2ccc(F)cc2)CCN(C(=O)c2cccnc2-c2ccncc2)CC1` [Compound A14, 1-([2,4′-bipyridine]-3-carbonyl)-4-(4-fluorobenzyl)piperidine-4-carbonitrile], for which the 50% inhibitory concentration (IC50) at CYP46A1 is < 100 nM. The CLint scaled at 1 µM in series [1] was < 18 mL/min/kg. Moreover, in the series on P-gp (MDR1), the Papp A→B at 2.5 h, 2 µM was found to be 21 ×10⁻⁶ cm/s and the efflux ratio at 2.5 h, 2 μM worked out at 1.2.

In the case of `N#CC1(Cc2ccccc2)CCN(C(=O)c2cccnc2-c2ccncc2)CC1` [Compound A32, 1-([2,4′-bipyridine]-3-carbonyl)-4-benzylpiperidine-4-carbonitrile], the IC50 on CYP46A1 is < 100 nM. In series [1], the CLint scaled at 1 µM was < 18 mL/min/kg. In the series with P-gp (MDR1), the Papp A→B at 2.5 h, 2 µM is 28 ×10⁻⁶ cm/s and the efflux ratio at 2.5 h, 2 μM was 1.2.

As a reminder, the IC50 is the concentration needed to halve the response being measured. What is called Papp A→B is the apparent permeability from the apical to the basolateral side of a cell layer. The low end stands for poor permeation, the high end for ready permeation. In general, AUC refers to the area under the concentration-time curve, a measure of exposure. The term Cmax denotes the maximum level reached in the sampled fluid or tissue. What is called half-life is the time in which the quantity being followed falls by half. A lower half-life goes with rapid decline.
